Measurements published in patent publication US11161830B2, “4-pyridone compound or salt thereof, and pharmaceutical composition and formulation including same” (priority 2017, dated 2021).
“And” between values parts separate entries of the source, which are not always exact repeats. Equal values may be shown once. Read-outs that look alike come from different tables or passages of the source.

Key:
[1] = tested on: HBV genotype C; assay: Test Example 3-2: in vivo efficacy study in PXB mouse (chimeric mouse with human hepatocytes), first and second study; design: species or system hepatitis B virus; conditions: first study, individual mice
Description: An in vivo efficacy study with a PXB mouse (a chimeric mouse with human hepatocytes) was carried out in PhenixBio Co., Ltd. 19-Week-or-more-old male mice having body weights of 10.5 g or more after the elapse of 13 weeks or more from the infection with HBV genotype C were allocated into the respective groups and used. The studies were carried out twice, and a 21-day administration withdrawal period was provided between the first study and the second study.
The first administration day in the first study was taken as day 0, and the compound of Example 6-5 was orally administered at 1 mg/kg, 3 mg/kg, 10 mg/kg, and 30 mg/kg twice a day, or 0.5% methylcellulose (vehicle) was orally administered once a day for 14 days. Before administration on day 0, day 3, Day 7, and day 10, and on day 14, the blood was collected from the orbital venous plexus under anesthesia with isoflurane.
The first administration day in the second study was taken as day 35, and the compounds of Examples 19-2 and 20-2 were each orally administered at 3 mg/kg twice a day, or 0.5% methylcellulose (vehicle) was orally administered once a day for 14 days. Before administration on day 35, day 38, day 42, and day 45, the blood was collected from the orbital venous plexus under anesthesia with isoflurane. On day 49, the blood was collected from the heart under anesthesia with isoflurane.
The serum was separated from the collected blood and purified with a QIAamp (registered trademark) DNA Blood Mini Kit (manufactured by QIAGEN). The amount of HBV-DNA in the obtained solution was absolutely quantified by a real-time PCR method. In addition, the amount of HBsAg in the serum was absolutely quantified by chemiluminescent enzyme immunoassay using Lumipulse (registered trademark) HBsAg-HQ (manufactured by Fujirebio Inc.).

[2] = tested on: HBV; assay: Test Example 1-1: anti-HBV assay in HepG2.2.15 cells (test solution 200 μL/well); assay type: cell-based, hepatitis B virus; conditions: Hepatitis B virus, culture supernatant
Procedure, shortened: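 HepG2.2.15 cells (HBV genome, persistent virus production) pre-cultured 2 days, then treated with compound in 0.25% DMSO medium for 4 days, refreshed for 3 more days at 37 °C. Supernatant HBV-DNA measured by real-time PCR and HBsAg by chemiluminescent immunoassay. IC50 = 50% reduction versus DMSO control, linear regression on log concentration.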

[3] = orally 1 mg/kg twice a day, Day 0 (before administration), 1 mg/kg
[4] = orally 1 mg/kg twice a day, Day 3, 1 mg/kg
[5] = orally 1 mg/kg twice a day, Day 7, 1 mg/kg
[6] = orally 1 mg/kg twice a day, Day 14, 1 mg/kg
[7] = orally 3 mg/kg twice a day, Day 0 (before administration), 3 mg/kg
[8] = orally 3 mg/kg twice a day, Day 3, 3 mg/kg
[9] = orally 3 mg/kg twice a day, Day 7, 3 mg/kg
[10] = orally 3 mg/kg twice a day, Day 10, 3 mg/kg
[11] = orally 3 mg/kg twice a day, Day 14, 3 mg/kg
[12] = orally 10 mg/kg twice a day, Day 0 (before administration), 10 mg/kg
[13] = orally 10 mg/kg twice a day, Day 3, 10 mg/kg
[14] = orally 10 mg/kg twice a day, Day 7, 10 mg/kg
[15] = orally 10 mg/kg twice a day, Day 10, 10 mg/kg
[16] = orally 10 mg/kg twice a day, Day 14, 10 mg/kg
[17] = orally 30 mg/kg twice a day, Day 0 (before administration), 30 mg/kg
[18] = orally 30 mg/kg twice a day, Day 3, 30 mg/kg
[19] = orally 30 mg/kg twice a day, Day 7, 30 mg/kg
[20] = orally 30 mg/kg twice a day, Day 10, 30 mg/kg
[21] = orally 30 mg/kg twice a day, Day 14, 30 mg/kg

**Q.** Which HBV-DNA in blood [1, 3] does the source give for COCCN1CCN(c2nc3ccc(-n4cc(C(=O)O)c(=O)cc4-c4ccc(N5CCCC5)c(Cl)c4)cc3s2)CC1 [Example 6-5, 6-(3-chloro-4-(pyrrolidin-1-yl)phenyl)-1-(2-(4-(2-methoxyethyl)piperazine-1-yl)benzo[d]thiazol-6-yl)-4-oxo-1,4-dihydropyridine-3-carboxylic acid] here?
**A.** 8.4E+08 copies/mL and 1.1E+09 copies/mL

**Q.** What about the HBsAg in serum [1, 3] of the same compound?
**A.** 1,910 IU/mL and 2,498 IU/mL

**Q.** And the HBV-DNA in blood [1, 4]?
**A.** 1.6E+09 copies/mL and 7.7E+08 copies/mL

**Q.** And the HBsAg in serum [1, 4]?
**A.** 2,288 IU/mL and 2,694 IU/mL

**Q.** What about the HBV-DNA in blood [1, 5] of the same compound?
**A.** 1.4E+09 copies/mL and 1.1E+09 copies/mL

**Q.** And the HBsAg in serum [1, 5]?
**A.** 2,444 IU/mL and 2,663 IU/mL

**Q.** And the HBV-DNA in blood ([1]; orally 1 mg/kg twice a day, Day 10)?
**A.** 1.2E+09 copies/mL

**Q.** What about the HBsAg in serum ([1]; orally 1 mg/kg twice a day, Day 10, 1 mg/kg) of the same compound?
**A.** 1,947 IU/mL and 2,431 IU/mL

**Q.** And the HBV-DNA in blood [1, 6]?
**A.** 6.8E+08 copies/mL and 6.4E+08 copies/mL

**Q.** What about the HBsAg in serum [1, 6] of the same compound?
**A.** 1,777 IU/mL and 2,344 IU/mL

**Q.** What about the HBV-DNA in blood [1, 7] of the same compound?
**A.** 1.8E+09 copies/mL and 9.8E+08 copies/mL

**Q.** And the HBsAg in serum [1, 7]?
**A.** 2,722 IU/mL and 2,314 IU/mL

**Q.** What about the HBV-DNA in blood [1, 8] of the same compound?
**A.** 5.7E+08 copies/mL and 5.6E+08 copies/mL

**Q.** What about the HBsAg in serum [1, 8] of the same compound?
**A.** 972 IU/mL and 1,059 IU/mL

**Q.** And the HBV-DNA in blood [1, 9]?
**A.** 4.9E+08 copies/mL and 4.0E+08 copies/mL

**Q.** What about the HBsAg in serum [1, 9] of the same compound?
**A.** 859 IU/mL and 876 IU/mL

**Q.** And the HBV-DNA in blood [1, 10]?
**A.** 5.7E+08 copies/mL and 6.2E+08 copies/mL

**Q.** And the HBsAg in serum [1, 10]?
**A.** 959 IU/mL and 1,025 IU/mL

**Q.** What about the HBV-DNA in blood [1, 11] of the same compound?
**A.** 6.1E+08 copies/mL and 5.2E+08 copies/mL

**Q.** And the HBsAg in serum [1, 11]?
**A.** 1,012 IU/mL and 837 IU/mL

**Q.** And the HBV-DNA in blood [1, 12]?
**A.** 1.1E+09 copies/mL and 1.2E+09 copies/mL

**Q.** And the HBsAg in serum [1, 12]?
**A.** 2,500 IU/mL and 2,409 IU/mL

**Q.** What about the HBV-DNA in blood [1, 13] of the same compound?
**A.** 8.0E+08 copies/mL and 4.5E+08 copies/mL

**Q.** And the HBsAg in serum [1, 13]?
**A.** 595 IU/mL and 421 IU/mL

**Q.** And the HBV-DNA in blood [1, 14]?
**A.** 3.3E+08 copies/mL and 4.0E+08 copies/mL

**Q.** What about the HBsAg in serum [1, 14] of the same compound?
**A.** 445 IU/mL and 366 IU/mL

**Q.** What about the HBV-DNA in blood [1, 15] of the same compound?
**A.** 7.3E+08 copies/mL and 3.9E+08 copies/mL

**Q.** What about the HBsAg in serum [1, 15] of the same compound?
**A.** 394 IU/mL and 329 IU/mL

**Q.** And the HBV-DNA in blood [1, 16]?
**A.** 4.9E+08 copies/mL and 3.6E+08 copies/mL

**Q.** What about the HBsAg in serum [1, 16] of the same compound?
**A.** 368 IU/mL and 398 IU/mL

**Q.** What about the HBV-DNA in blood [1, 17] of the same compound?
**A.** 1.6E+09 copies/mL and 1.2E+09 copies/mL

**Q.** What about the HBsAg in serum [1, 17] of the same compound?
**A.** 2,291 IU/mL and 2,328 IU/mL

**Q.** And the HBV-DNA in blood [1, 18]?
**A.** 8.3E+08 copies/mL and 4.4E+08 copies/mL

**Q.** And the HBsAg in serum [1, 18]?
**A.** 673 IU/mL and 592 IU/mL

**Q.** What about the HBV-DNA in blood [1, 19] of the same compound?
**A.** 7.5E+08 copies/mL and 3.7E+08 copies/mL

**Q.** What about the HBsAg in serum [1, 19] of the same compound?
**A.** 458 IU/mL and 370 IU/mL

**Q.** What about the HBV-DNA in blood [1, 20] of the same compound?
**A.** 8.0E+08 copies/mL and 4.9E+08 copies/mL

**Q.** What about the HBsAg in serum [1, 20] of the same compound?
**A.** 359 IU/mL and 392 IU/mL

**Q.** And the HBV-DNA in blood [1, 21]?
**A.** 6.1E+08 copies/mL and 2.6E+08 copies/mL

**Q.** And the HBsAg in serum [1, 21]?
**A.** 408 IU/mL and 268 IU/mL

**Q.** COC[C@H]1CCCN1c1nc2ccc(-n3cc(C(=O)O)c(=O)cc3-c3ccc(N4CC[C@@H](OC)C4)cc3)cc2s1 [Example 10-2, 1-(2-((R)-2-(methoxymethyl)pyrrolidin-1-yl)benzo[d]thiazol-6-yl)-6-(4-((R)-3-methoxypyrrolidin-1-yl)phenyl)-4-oxo-1,4-dihydropyridine-3-carboxylic acid] was tested. Which IC50 ([2]; read-out: IC50 HBV-DNA) did it give?
**A.** 5.2 nM

**Q.** And the IC50 ([2]; read-out: IC50 HBsAg)?
**A.** 2.7 nM
